Assay results: US12295997B2, “Prostate neoantigens and their uses” (Janssen Biotech, Inc., priority 2020, dated 2025)

B1: P19 (peptide, listed as Homo sapiens)
chain: WTPIPVLTRWPLPHPPPWRRATSCRMARSSPSATSGSSVRRRCSSLPSWVWNLAASTRPRSTPS

Legend:
[1] = test system: CD8+ T cells in PBMCs from human patients with metastatic castrate-resistant prostate cancer; experiment: Patient PBMC restimulation assay (in vitro immunogenicity, TNFα/IFNγ intracellular flow cytometry); type: cell-based; settings: 9-mer peptide; for Maximum fold change over negative control: TNFα+IFNγ+CD8+ T cells, highest across PBMC donors evaluated; for Maximum frequency of TNFα^+IFNγ^+CD8^+ T cells (Percent): greatest frequency among all tested PBMC donors; for Immunogenic: patient PBMC restimulation
Protocol: PBMCs from human patients with metastatic castrate-resistant prostate cancer were thawed using media (RPMI 1640 supplemented with Glutamax, 10% HI FBS, and 1× Sodium Pyruvate). Cells were counted and plated in a 96 well round bottom microplate at a concentration of 250,000 viable cells per well. Lyophilized peptides were solubilized in 100% DMSO and diluted in media to 10 μg/mL. Neoantigen peptides were added in equal volume to PBMCs for a final concentration of 5 μg/mL. CEF Peptide Pool “Plus” (Cellular Technologies, Ltd.) was utilized as a positive control and DMSO at the same final concentration as the experimental peptides was utilized as a negative control. Human IL-15 (Peprotech) was added to all wells at final concentration of 10 ng/mL.
Plates were incubated at 37° C. (5% CO2) for a total of 13 days. Media was refreshed every 2 days with IL-15 (10 ng/mL final concentration) and IL-2 (R&D systems, 10 IU/mL final concentration). On day 12, PBMCs were re-stimulated with identical experimental peptides or controls, at same concentration as peptide stimulation on Day 1. After 1-hour incubation, protein Inhibitor Cocktail (eBioscience) was added to every well and plate was incubated overnight.
On day 13, cells were stained for intracellular flow cytometry analysis. The cells were washed with PBS and stained with Live/Dead Fixable Aqua Dead Cell stain (Thermo-Fisher). Following the live/dead stain, cells were blocked using Biotin-Free Fc Receptor Blocker (Accurate Chemical & Scientific Corp). Extracellular cellular flow panel ([…] per well in 50 μL) consisted of CD3 PerCP-Cy5.5 (Biolegend), CD4 BV421 (Biolegend), and CD8 APC-Cy7 (Biolegend). After extracellular staining, cells were fixed using Foxp3/fTranscription Factor Staining Buffer Set (eBioscience) and stained for intracellular proteins (1:50 dilution) using TNFα FITC (R&D Systems) and IFNγ BV785 (Biolegend). Cells were washed and resuspended in stain buffer and analyzed using a BD Celesta flow cytometer.
Flow cytometry cell staining analysis was completed using FlowJo v10. Cells were gated on live, singlet, CD3+ cells. The CD8+ T cells were analyzed for TNFα/IFNγ expression and the frequency of double positive TNFα/IFNγ CD8+ T cells was recorded. Responses were assessed to be positive when the frequency of double positive TNFα/IFNγ CD8+ T cells due to stimulation with an experimental peptide was increased greater than or equal to 2-fold over the DMSO only negative control for that patient. Peptides were analyzed in 1 to 7 patient samples.
The 9 mer fragments shown in Table 13 were assessed for their ability to activate T cells using the Patient PBMC restimulation assay described in Example 1 using TNFα and IFNγ production by CD8^+ T cells as a readout. Self-antigens shown in Table 15 were also used in the assays. […] PBMCs from ten patients were evaluated.

[2] = target: HLA-B*07:02 (Homo sapiens, UniProt P01889); experiment: In vitro binding of neoantigens to class I MHC (UV peptide exchange, HLA class I ELISA); settings: 100% = same binding as positive control peptide
Procedure, shortened: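 Biotinylated conditional HLA class I complexes loaded with allele-specific UV-labile peptide were UV-cleaved (neutral pH, on ice) in presence of 9-mer test peptides. Intact complexes captured on streptavidin, detected with HRP-anti-human B2M antibody by absorbance. Exchange efficiency normalized to exchange control peptide Pos (100%).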

Molecule | Maximum fold change over negative control [1] | Maximum frequency of TNFα^+IFNγ^+CD8^+ T cells (Percent) [1] [%] | Immunogenic [1] | Exchange rate with allele specific Pos peptide, HLA-B*07:02 [2] [%]
P46 (DDRNTFDIVWWCPMSRLRLALTVPPSTTTTCVTVPAWAA; listed as Homo sapiens) [Peptide P46] | 2.33 | 0.140 | Yes | 64.8
P56 (PKSEVRAKCKFSILNAK; listed as Homo sapiens) [Peptide P56] | 11.57 | 1.620 | Yes | 82.5
P58 (MMAEIISVHVPKILSGK; listed as Homo sapiens) [Peptide P58] |  | 5.370 | Yes | 
P60 (CYLRRQKRLKCEKQPGA; listed as Homo sapiens) [Peptide P60] | 2.08 | 0.340 | Yes | 6.1
P61 (MFENGCYLGRQKRFKCE; listed as Homo sapiens) [Peptide P61] |  | 0.084 | Yes | 
P73 (DSSGNLLERNSFEVRV; listed as Homo sapiens) [Peptide P73] | 2.97 | 0.110 | Yes | 8.7
P97 (GYLRMQGLMAQRLLLR; listed as Homo sapiens) [Peptide P97] | 4.55 | 0.160 | Yes | 7
P98: neoantigen 9 mer fragment used for PBMC stimulation (FIG. 5D) (IVWWCPMSR; listed as Homo sapiens) [Neoantigen P98] | 14.93 | 1.000 | Yes | 6.7
SLYHREKQLIAMDSAI (listed as Homo sapiens) [Neoantigen P22] |  | 0.120 | Yes | 
YEAGMTLGEKFRVGNCKHLKMTRP (listed as Homo sapiens) [Neoantigen P82] | 3.46 | 0.970 | Yes | 12.9
YEAGMTLGGKILFFLFLLLPLSPFSLIF (listed as Homo sapiens) [Neoantigen P87] | 3.24 | 0.120 | Yes | 5
B1 | 5.00 | 0.480 | Yes | 91.3
